From PubChem BioAssay (NCI)
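All cell lines were grown in 96-well plates and treated with compound for 48 hours. GI50 = concentration required for 50% inhibition of growth. Definition used: TGI = concentration required for complete inhibition of growth.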 Where a SMILES comes first, the peptide text is derived from it. The star is where a group is joined. Boc = CC(C)(C)OC(=O)*

Assays:
Assay in all cases: NCI tumour cell line growth inhibition, 48 h
[1] = system: NCI-H460 lung
[2] = system: MOLT-4 leukemia
[3] = system: NCI-H23 lung
[4] = system: MALME-3M melanoma
[5] = system: EKVX NSCLC
[6] = system: A549 NSCLC
[7] = system: SNB-75 CNS
[8] = system: HCC-2998 colon
[9] = system: T-47D breast
[10] = system: CAKI-1 renal

Compound	TGI [1] [µM]	TGI [2] [µM]	TGI [3] [µM]	TGI [4] [µM]	TGI [5] [µM]	TGI [6] [µM]	TGI [7] [µM]	TGI [8] [µM]	TGI [9] [µM]	TGI [10] [µM]	GI50 [8] [µM]	GI50 [2] [µM]	GI50 [10] [µM]	GI50 [3] [µM]	GI50 [4] [µM]	GI50 [5] [µM]	GI50 [9] [µM]	GI50 [7] [µM]
CC(=O)O[C@]12CCCCCC1C1(O)C(O)CCC[C@H]12 (stereo partly drawn)	> 100	> 100	> 100	> 100	> 100	> 100	> 100											
COC(=O)c1c2c(cc3c1CC1(C3)Cc3cc4c(c(C(=O)OC)c3C1)CCCC4)CCCC2		> 100	> 100	> 100	> 100	> 100		> 100	> 100									
C=C[C@@H]1C(CO)=CCC2[C@H]1CCC1C(C)(C)C(=O)CC[C@]21C (stereo partly drawn)	> 100	> 100	> 100	> 100	> 100	> 100		> 100	> 100	> 100								
Clc1ccc(-c2nn3c(-c4ccncc4)nnc3s2)cc1	> 100	> 100	> 100	> 100	> 100	> 100			> 100	> 100								
O=C(CNc1ccccc1Cl)Nn1c(-c2ccccc2)nc2ccccc2c1=O	> 100	57.7	40.8		36.8	> 100	63	39.8										
O=c1c2ccccc2nc2[nH][nH]c(=S)n12	> 100	> 100	> 100		> 100	> 100	> 100		> 100	> 100								
O=C(c1cc2ccccc2cc1O)N1CCCCC1	> 100	42.7			78.1		> 100	49.8	> 100	> 100								
COCOc1ccc(Cn2c(=O)n(C)c(=O)c3c2ncn3C)cc1[N+](=O)[O-]	> 100	> 100	> 100	> 100	> 100	> 100	> 100	> 100										
C(=N\NC1=NCCCN1)/c1ccc2ccccc2c1	17.4	5.02	36.6	33.2	32.8	22.4	18.4	10.5	33									
O=C(NC(Cc1ccc(I)cc1)C(=O)O)c1ccc(I)cc1 (stereo not drawn)	> 100	> 100	> 100	> 100	> 83.6	> 100	> 100	> 77.3		> 100								
O=C(CCCN1CCC2(CC1)CC(=O)N(N1CCOCC1)C2=O)c1ccccc1		> 100	> 100	> 100	> 100	> 100	> 100	> 100	> 100	> 100								
Cc1c(S(=O)(=O)/N=C(\N)Nc2ccc(Cl)cc2)sc2ccc(Cl)cc12	33.6	78.1	41.5	39.8	33.4	46.8	43.5		> 100									
CCOc1cc(C2CC(c3ccc(NS(=O)(=O)c4cc([N+](=O)[O-])ccc4C)cc3)=NN2C(=O)c2ccccc2)ccc1O (stereo not drawn)		> 100	69	61.4	61.4	> 100	36.6		71.3	> 100								
C=CCOC(=O)CC[N+]1=CCC(c2ccccc2)(c2ccccc2)O1	> 100	> 100	> 100		> 100	> 100		> 100	> 100	> 100								
CC(C)(C)OC(=O)NCC(=O)NCC(=O)NCC(=O)NCC(=O)O (Boc-GGGG-OH)	> 100	> 100	> 100	> 100	> 100	> 100		> 100	> 100	> 100								
O=C(N=Nc1cc(Cl)ccc1Cl)NNc1cc(Cl)ccc1Cl	44.5		53.1	82.1			57.5	94.1	> 100	43.7								
CN(C)Cc1cc(C(=O)/C=C/c2ccc(O)cc2)cc(CN(C)C)c1O	> 100	> 100	> 100		> 100	> 100	86.3	> 100	> 100	> 100								
COc1ccc2cc(-c3ccc(-c4ccc(C(=N)N)s4)s3)ccc2c1		6.7	9.89	11.5	6.1		26.6	11.7	4.01	21.9	3.35	2.17	8.29	3.22	3.32	2.14	1.79	10.4
COc1ccc2nc3cc(Cl)ccc3c(NCCCNCCCNc3c4ccc(Cl)cc4nc4ccc(OC)cc34)c2c1	0.0131	> 100	0.144	1.22	0.89	0.165	0.23	0.147	1.23									
O=C1C[C@H](Sc2ccccc2)C2(OCCO2)[C@@H](Sc2ccccc2)C1	> 44.5		6.08	7.81	17.1	28	26	6.42	> 43.5	12.8								
c1ccc2c(c1)NC(C1OC3CCCN3C1C1Nc3ccccc3S1)S2 (stereo not drawn)	> 100	> 100	> 100	> 100	> 100	> 100	> 100	> 100		> 100								
COc1nc(C#CCC(C)O)nc(OC)n1 (stereo not drawn)	> 100	> 100	43.4	25.6	39.3	52.9	64		> 100	31.9								
COC(=O)[C@]12CC[C@H]3CN(C(=O)OCc4ccccc4)[C@H]([C@H]31)[C@H](c1ccco1)N2S(=O)(=O)c1ccc(C)cc1	87.8	> 100	48.5	38.3	> 100	> 100		34.5	93	89.4								
